Results as given in paper PMC12951562, “SH2scan: Mapping SH2 Domain-Ligand Binding Selectivity for Inhibitors and Degraders” (Journal of Medicinal Chemistry, 2026).
Where two headings read alike, the source gives them in different places. Non-standard residues stand in square brackets, D forms with d. Residues, ends and D or L forms follow the SMILES beside them. *: point of attachment. pY = N[C@@H](Cc1ccc(OP(=O)(O)O)cc1)C(=O)O; Caffeoyl = O=C(/C=C/c1ccc(O)c(O)c1)*

Key:
Assay in all cases: biochemical
Type in all cases: binding
[1] = biological target: T1, TNS4 (Homo sapiens, UniProt Q8IZW8); conditions: for remaining activity at 10 µM: read-out: percent of DMSO vehicle control
T1 construct: made in house; host or cells: HEK293 (transient transfection), unpurified extract
T1 sequence (Q8IZW8 19-715): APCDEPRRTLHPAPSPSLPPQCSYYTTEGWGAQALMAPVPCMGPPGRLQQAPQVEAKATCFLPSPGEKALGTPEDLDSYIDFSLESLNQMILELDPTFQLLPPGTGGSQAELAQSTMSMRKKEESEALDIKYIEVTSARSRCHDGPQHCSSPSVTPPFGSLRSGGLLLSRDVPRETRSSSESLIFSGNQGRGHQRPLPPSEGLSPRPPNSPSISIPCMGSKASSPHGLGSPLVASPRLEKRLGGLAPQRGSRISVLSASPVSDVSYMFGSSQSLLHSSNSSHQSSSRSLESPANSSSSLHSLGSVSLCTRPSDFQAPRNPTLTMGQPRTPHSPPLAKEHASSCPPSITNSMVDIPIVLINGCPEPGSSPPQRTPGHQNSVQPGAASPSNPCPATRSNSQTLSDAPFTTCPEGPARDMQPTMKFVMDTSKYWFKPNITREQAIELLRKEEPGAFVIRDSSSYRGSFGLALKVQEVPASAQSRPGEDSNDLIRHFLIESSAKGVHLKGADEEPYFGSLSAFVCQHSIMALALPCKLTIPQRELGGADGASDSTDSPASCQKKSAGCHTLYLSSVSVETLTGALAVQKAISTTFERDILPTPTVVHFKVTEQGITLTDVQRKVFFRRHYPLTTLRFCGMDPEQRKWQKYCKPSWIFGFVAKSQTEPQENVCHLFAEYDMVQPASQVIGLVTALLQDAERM

[2] = biological target: T2, CRKL (Homo sapiens, UniProt P46109); conditions: for percent of DMSO vehicle control at 10 µM / remaining activity at 10 µM: read-out: percent of DMSO vehicle control
T2 construct: the DNA-tagged SH2 domain concentrations used in this study were <0.1 nM; made in house; host or cells: HEK293 (transient transfection; unpurified extract)
T2 sequence (P46109 14-102 limits assumed): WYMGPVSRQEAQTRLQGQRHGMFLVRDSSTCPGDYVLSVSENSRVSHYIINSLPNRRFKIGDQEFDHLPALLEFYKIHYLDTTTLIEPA

[3] = biological target: T3, DAPP1 (Homo sapiens, UniProt Q9UN19); conditions: for percent of DMSO vehicle control at 10 µM / remaining activity at 10 µM: read-out: percent of DMSO vehicle control
T3 construct: the DNA-tagged SH2 domain concentrations used in this study were <0.1 nM; made in house; host or cells: HEK293 (transient transfection; unpurified extract)
T3 sequence (Q9UN19 35-129 limits assumed): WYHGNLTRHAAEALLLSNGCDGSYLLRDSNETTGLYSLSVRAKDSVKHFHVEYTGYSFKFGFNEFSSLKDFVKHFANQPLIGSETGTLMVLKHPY

[4] = biological target: T4, MIST (Homo sapiens, UniProt Q7Z7G1); conditions: for percent of DMSO vehicle control at 10 µM / remaining activity at 10 µM: read-out: percent of DMSO vehicle control
T4 construct: the DNA-tagged SH2 domain concentrations used in this study were <0.1 nM; made in house; host or cells: HEK293 (transient transfection, unpurified extract)
T4 sequence (Q7Z7G1 309-419 limits assumed): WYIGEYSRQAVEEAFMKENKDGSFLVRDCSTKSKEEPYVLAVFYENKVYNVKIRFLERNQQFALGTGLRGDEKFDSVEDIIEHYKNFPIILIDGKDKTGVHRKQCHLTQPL

[5] = biological target: T5, CBLC (Homo sapiens, UniProt Q9ULV8); conditions: for percent of DMSO vehicle control at 10 µM / remaining activity at 10 µM: read-out: percent of DMSO vehicle control
T5 construct: the DNA-tagged SH2 domain concentrations used in this study were <0.1 nM; made in house; host or cells: HEK293 (transient transfection; unpurified extract)
T5 sequence (Q9ULV8 219-321 limits assumed): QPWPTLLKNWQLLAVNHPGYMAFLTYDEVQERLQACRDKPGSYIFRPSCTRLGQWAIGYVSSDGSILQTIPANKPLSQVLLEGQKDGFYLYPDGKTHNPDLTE

[6] = biological target: T6, SOCS6 (Homo sapiens, UniProt O14544); conditions: for remaining activity at 10 µM: read-out: percent of DMSO vehicle control
T6 construct: made in house; host or cells: HEK293 (transient transfection), unpurified extract
T6 sequence (O14544 1-535): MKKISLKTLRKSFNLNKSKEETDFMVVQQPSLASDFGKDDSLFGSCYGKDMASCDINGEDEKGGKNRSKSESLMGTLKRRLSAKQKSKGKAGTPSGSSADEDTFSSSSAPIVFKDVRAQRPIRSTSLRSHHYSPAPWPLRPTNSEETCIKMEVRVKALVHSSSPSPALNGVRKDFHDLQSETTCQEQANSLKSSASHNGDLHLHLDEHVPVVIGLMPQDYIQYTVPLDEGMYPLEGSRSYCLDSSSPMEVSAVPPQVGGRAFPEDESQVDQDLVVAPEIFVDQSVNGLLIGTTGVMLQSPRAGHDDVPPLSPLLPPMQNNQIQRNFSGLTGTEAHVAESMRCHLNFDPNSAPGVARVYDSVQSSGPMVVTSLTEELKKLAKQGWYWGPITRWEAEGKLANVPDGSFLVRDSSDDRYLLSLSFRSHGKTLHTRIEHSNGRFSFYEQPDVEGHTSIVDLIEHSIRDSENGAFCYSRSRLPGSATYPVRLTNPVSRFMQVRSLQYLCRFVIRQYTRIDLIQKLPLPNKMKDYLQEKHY

| SMILES | Kd [1] [nM] | percent of DMSO vehicle control at 10 µM [2] [%] | percent of DMSO vehicle control at 10 µM [3] [%] | percent of DMSO vehicle control at 10 µM [4] [%] | percent of DMSO vehicle control at 10 µM [5] [%] | remaining activity at 10 µM [6] [%] | remaining activity at 10 µM [1] [%] | remaining activity at 10 µM ([2]; primary screen, 10 μM) [%] | remaining activity at 10 µM ([3]; primary screen, 10 μM) [%] | remaining activity at 10 µM ([4]; primary screen, 10 μM) [%] | remaining activity at 10 µM ([5]; primary screen, 10 μM) [%] | remaining activity at 10 µM ([6]; primary screen, 10 μM) [%] | KD ([1]; dose-response) | remaining activity at 10 µM ([1]; primary screen, 10 μM) [%] | further results |
| --- | --- | --- | --- | --- | --- | --- | --- | --- | --- | --- | --- | --- | --- | --- | --- |
| CC[C@H](C)[C@H](NC(=O)[C@H](CO)NC(=O)[C@H](CC(C)C)NC(=O)[C@H](CCCNC(=N)N)NC(=O)[C@H](CO)NC(=O)[C@H](CS)NC(C)=O)C(=O)N[C@@H](Cc1ccc(OP(=O)(O)O)cc1)C(=O)N[C@@H](CC(=O)O)C(=O)N[C@@H](CC(N)=O)C(=O)N[C@H](C(=O)N1CCC[C@H]1C(=O)NCC(N)=O)C(C)C [Ac-CSRLSIpYDNVPG-NH2] (Ac-CSRLSI[pY]DNVPG-NH2) | 28.3 ± 4.96 | – | – | – | – | – | – | – | – | – | – | – | – | – | – |
| CC[C@H](C)[C@H](NC(=O)[C@H](CCC(=O)O)NC(=O)[C@H](CCC(=O)O)NC(=O)[C@H](Cc1ccc(OP(=O)(O)O)cc1)NC(C)=O)C(=O)N[C@@H](CCC(=O)O)C(N)=O [Ac-pYEEIE-NH2] (Ac-[pY]EEIE-NH2) | – | – | – | – | – | – | – | – | – | – | – | – | – | – | percent of DMSO vehicle control ([2]; primary screen, 10 μM): 131.3%; percent of DMSO vehicle control ([3]; primary screen, 10 μM): 134.5%; percent of DMSO vehicle control ([4]; primary screen, 10 μM): 55.1%; percent of DMSO vehicle control ([5]; primary screen, 10 μM): 97.4±7.1%; percent of DMSO vehicle control ([6]; primary screen, 10 μM): 95.6±6.2%; percent of DMSO vehicle control ([1]; primary screen, 10 μM): 61.9±0.0% |
| CC(=O)N[C@@H](Cc1ccc(CP(=O)(O)O)cc1)C(=O)NC1(C(=O)N[C@@H](CC(N)=O)C(=O)NCCCc2c(O)ccc3ccccc23)CCCCC1 [CGP78850] | 508 | 36.4 ± 18.5 | 136 ± 2.8 | 102 ± 2.3 | 128 ± 29.6 | 63.3 ± 5.3 | 5 ± 1.1 | – | – | – | – | – | – | – | – |
| CC[C@H](C)[C@H](NC(=O)[C@H](CCC(=O)O)NC(=O)[C@H](CCC(=O)O)NC(=O)[C@H](Cc1ccc(OP(=O)(O)O)cc1)NC(=O)/C=C/c1ccc(O)c(O)c1)C(=O)N[C@@H](CCC(=O)O)C(=O)O [Caffeic acid-pYEEIE] (Caffeoyl-[pY]EEIE-OH) | 2600 ± 740 | 42.1 ± 6 | 39.2 ± 3.2 | 72.9 ± 1.4 | 0.1 | 8.2 ± 0.1 | 3.1 ± 0.7 | – | – | – | – | – | – | – | Kd [5]: 37 ± 23 nM; Kd [6]: 1900 ± 240 nM |
| O=C(CCl)Nc1cccc(CNC(=O)[C@H](Cc2ccc(OP(=O)(O)O)cc2)NC(=O)Cc2ccc(F)cc2)c1 [MN551] | – | – | – | – | – | – | – | 202 | 81.2 | 102 | 43 ± 3.8 | 65.2 ± 0.1 | No Hit | 25.9 | – |
| NC(=O)CC[C@H](NC(=O)[C@@H]1CC[C@@H]2CCN(C(=O)CCCCCC#Cc3cccc4c3CN(C3CCC(=O)NC3=O)C4=O)C[C@H](NC(=O)c3cc4cc(C(F)(F)P(=O)(O)O)ccc4[nH]3)C(=O)N21)C(=O)NC(c1ccccc1)c1ccccc1 (some centres unmarked) [SD-36] | – | 119 | 126 | 104 ± 8.6 | 113 ± 4.5 | 57.2 ± 3.4 | 58.1 ± 8.9 | – | – | – | – | – | – | – | – |
| CC(=O)N1CC[C@H]2CC[C@@H](C(=O)N[C@@H](CCC(N)=O)C(=O)NC(c3ccccc3)c3ccccc3)N2C(=O)[C@@H](NC(=O)c2cc3cc(C(F)(F)P(=O)(O)O)ccc3[nH]2)C1 [SI-109] | – | 125 | 149 | 104 | 106 | 91.9 ± 7.4 | 110 | – | – | – | – | – | – | – | – |
| C/C(=C\C(=O)N[C@H](C(=O)N1CCC[C@H]1C(=O)N(c1ccccc1)c1ccc(I)cc1)C(C)(C)C)c1ccc(OP(=O)(O)O)cc1 [STAT6-IN-1] | – | – | – | – | – | – | – | 42.4 ± 0.9 | 41.1 ± 13.9 | 88.7 ± 5.9 | 3.3 ± 0.1 | 44.1 ± 2.1 | – | 14 ± 3.4 | Kd ([5]; dose-response, read-out: KD): 1800 ± 490 nM; Kd ([1]; dose-response, read-out: KD): 1800 ± 420 nM |
| CC(C)(C)[C@H](NC(=O)/C=C/c1ccc(OP(=O)(O)O)cc1)C(=O)N1CCC[C@H]1C(=O)N(c1ccccc1)c1ccc(I)cc1 [STAT6-IN-3] | – | – | – | – | – | – | – | 102 ± 19.9 | 58.9 ± 43.2 | 102 ± 8.1 | 34.7 ± 1.3 | 90.2 ± 12.1 | No Hit | 21.6 ± 25.3 | Kd ([5]; dose-response, read-out: KD): 2800 ± 520 nM |
| O=C(COc1ccc2cc(C(=O)Nc3ccccc3)ccc2c1)NCc1ccc(OP(=O)(O)O)c(OP(=O)(O)O)c1 [Stafib-1] | – | – | – | – | – | – | – | 120 | 100 | 96.8 ± 9.3 | 100 | 96.9 ± 12 | No Hit | 32.7 | – |
